Measured values taken from ChEMBL document CHEMBL1132245, “Novel and potent 6-chloro-3-pyridinyl ligands for the alpha4beta2 neuronal nicotinic acetylcholine receptor” (J Med Chem, 1999).
pIC50: −log10 of the molar value.

What was measured:
Type in all cases: protein-complex assay
[1] = molecular target: T1, Neuronal acetylcholine receptor; alpha4/beta2 (Rattus norvegicus, UniProt P09483+P12390); assay: Inhibition of [3H](-)-nicotine binding to recombinant rat alpha4-beta2 nAChR.
[2] = molecular target: T1, Neuronal acetylcholine receptor; alpha4/beta2; assay: Inhibition of [3H](-)-nicotine binding to recombinant rat alpha4-beta2 nAChR was determined; experiment 2
[3] = molecular target: T1, Neuronal acetylcholine receptor; alpha4/beta2; assay: Inhibition of [3H](-)-nicotine binding to recombinant rat alpha4-beta2 nAChR was determined; experiment 1

T1 sequence (P09483 whole entry): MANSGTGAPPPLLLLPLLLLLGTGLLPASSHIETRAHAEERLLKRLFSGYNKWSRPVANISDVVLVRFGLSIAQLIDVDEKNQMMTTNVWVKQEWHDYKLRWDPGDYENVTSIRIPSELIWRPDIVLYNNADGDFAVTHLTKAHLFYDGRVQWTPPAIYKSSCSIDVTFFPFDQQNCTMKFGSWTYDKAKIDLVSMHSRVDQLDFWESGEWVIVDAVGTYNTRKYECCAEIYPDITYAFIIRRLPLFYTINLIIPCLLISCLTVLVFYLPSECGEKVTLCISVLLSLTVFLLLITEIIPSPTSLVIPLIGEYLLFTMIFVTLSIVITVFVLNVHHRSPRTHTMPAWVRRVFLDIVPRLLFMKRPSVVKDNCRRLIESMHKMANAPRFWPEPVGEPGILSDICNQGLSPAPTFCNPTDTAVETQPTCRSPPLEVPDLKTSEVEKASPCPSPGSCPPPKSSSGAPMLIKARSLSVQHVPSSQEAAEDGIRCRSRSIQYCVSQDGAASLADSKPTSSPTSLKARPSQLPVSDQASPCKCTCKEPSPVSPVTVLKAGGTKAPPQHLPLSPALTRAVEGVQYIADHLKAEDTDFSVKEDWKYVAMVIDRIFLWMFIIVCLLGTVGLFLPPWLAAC
T1 sequence (P12390 whole entry): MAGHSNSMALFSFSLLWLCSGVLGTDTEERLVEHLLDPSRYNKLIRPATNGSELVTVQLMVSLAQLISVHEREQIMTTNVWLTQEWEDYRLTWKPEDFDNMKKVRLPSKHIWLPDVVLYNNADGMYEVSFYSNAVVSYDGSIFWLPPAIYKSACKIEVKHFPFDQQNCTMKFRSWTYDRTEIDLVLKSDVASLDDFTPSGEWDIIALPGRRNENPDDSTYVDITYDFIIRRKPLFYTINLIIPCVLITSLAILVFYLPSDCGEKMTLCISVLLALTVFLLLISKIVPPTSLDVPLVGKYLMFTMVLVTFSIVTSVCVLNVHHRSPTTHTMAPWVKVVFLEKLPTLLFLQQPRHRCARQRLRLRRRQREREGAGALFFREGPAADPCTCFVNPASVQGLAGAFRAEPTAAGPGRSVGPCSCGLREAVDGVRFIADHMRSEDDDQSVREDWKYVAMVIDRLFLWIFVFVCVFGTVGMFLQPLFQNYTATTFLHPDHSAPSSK

Row | SMILES | pIC50 [1] | pIC50 [2] | pIC50 [3]
1 | O=C1NCCN1Cc1ccc(Cl)nc1 | 5.09 |  | 
2 | Clc1ccc(CN2CCN(Cc3ccc(Cl)nc3)CC2)cn1 |  | 5.78 | 5.76
3 | SC1=NCCN1Cc1ccc(Cl)nc1 |  | 4.87 | 4.90
4 | NC1=NCCO1 |  | 4.02 | 4.00
5 | CCN(Cc1ccc(Cl)nc1)C(=N)NC | 5.48 |  | 
6 | CN1CCCC1c1ccc(Cl)nc1 (stereo not drawn) | 8.72 |  | 
7 | N=C1NCCN1Cc1ccc(Cl)nc1 [DESNITROIMIDACLOPRID] | 8.22 |  | 
8 | NC1=NCCCS1 | 3.80 |  | 
9 | Clc1ccc(Cn2ccnc2)cn1 | 6.35 |  | 
10 | CN1CCCC1c1cccnc1Cl (stereo not drawn) | 5.49 |  | 
